In patent US5064827A, “Polyhydroxybenzyloxpropanolamines” (Du Pont Merck Pharmaceutical Company, priority 1990, dated 1991):

How the values were obtained:
[1] = test system: β-receptor (heart rate response to isoproterenol); assay: Duration and potency of beta-blocking action in vivo (3-hour infusion, isoproterenol challenge, pentobarbital-anesthetized dogs); parameters: species or system dog
Experimental: The duration of β-blockage was determined in vivo using pentobarbital-anesthetized dogs instrumented for measurement of heart rate using a Beckman cardiotachometer triggered electronically by a phasic aortic blood pressure signal. Both vagus nerves were severed in the cervical region and the animals were mechanically ventilated. The experimental design used employed a 3-hour infusion of test compound. Bolus doses of isoproterenol (0.5 μg/kg) were used to assess the degree of β-blockage and recovery from β-blockage after […] of the infusion. The doses were spaced at 10-minute intervals and were given before, during and following the infusion of test compounds. The infusion rate was adjusted so that at the end of the 3-hour infusion period the degree of isoproterenol inhibition averaged about 50% of control. Following termination of blocker infusion, percent recovery from β-blockade was computed and the time associated with 80% recovery estimated.

[2] = biological target: T1, β-receptor (guinea pig right atria) (Cavia porcellus, UniProt H0W3H1); assay: Beta-blocking activity in vitro, guinea pig right atria (antagonism of isoproterenol-induced rate response); type: cell-based; settings: 60-minute incubation, 37° C, Furchgott method; for Kb: read-out: pA2 Atria (converted)
T1 construct: from tissue; host or cells: guinea pig right atria
Experimental: Several of the compounds of the present invention were tested for β-blocking activity in vitro using guinea pig right atria and guinea pig tracheal strips mounted in a tissue bath containing oxygenated (95% 02 -5% CO2) Krebs physiological salt solution at 37° C. Each tissue was suspended between a fixed glass rod and a Statham Universal Transducer connected to a Beckman recorder. Atria were allowed to beat spontaneously under a loading tension of approximately 0.5 gm. Intrinsic depressant or stimulant activity was determined for each compound by progressively increasing concentrations in the tissue baths at 60-minute intervals. Tissues were not washed between increments. The maximum concentration showing little or no cardiodepressant activity was chosen for blockade experiments. Changes in rate in response to isoproterenol, a standard β-receptor agonist, were measured in the absence and presence of test compounds. Spiral strips of guinea pig trachea were suspended under 5 gm resting tension and incubated with phentolamine, tropolone and cocaine. Active tension was generated by addition of carbachol (3.0×10^-7 M) and decreases in tension in response to isoproterenol were quantitated. Cumulative concentration-response curves were produced with isoproterenol both before and after 60-minute incubation of test compounds with atria and trachea. Compounds with β-blocking activity shifted concentration-response curves to the right. The blocking potency of test compounds was estimated by computing pA2 values (--log K8) by the method of Furchgott, the Pharmacological Differentiation of Adrenergic Receptors, Ann. N.Y. Acad. Sci., 139:553-570 (1967). […] The degree of cardioselectivity was estimated from the ratio, Kβ trachea/Kβ atria (10^(pA 2^atria-pA 2^trachea)). A ratio greater than one indicates cardioselectivity. Test drugs were dissolved in distilled water and added to the bath (30 mL) in a volume of 10 or 100 μL. All of the test compounds are active β-blockers.

T1 sequence (H0W3H1 1-470): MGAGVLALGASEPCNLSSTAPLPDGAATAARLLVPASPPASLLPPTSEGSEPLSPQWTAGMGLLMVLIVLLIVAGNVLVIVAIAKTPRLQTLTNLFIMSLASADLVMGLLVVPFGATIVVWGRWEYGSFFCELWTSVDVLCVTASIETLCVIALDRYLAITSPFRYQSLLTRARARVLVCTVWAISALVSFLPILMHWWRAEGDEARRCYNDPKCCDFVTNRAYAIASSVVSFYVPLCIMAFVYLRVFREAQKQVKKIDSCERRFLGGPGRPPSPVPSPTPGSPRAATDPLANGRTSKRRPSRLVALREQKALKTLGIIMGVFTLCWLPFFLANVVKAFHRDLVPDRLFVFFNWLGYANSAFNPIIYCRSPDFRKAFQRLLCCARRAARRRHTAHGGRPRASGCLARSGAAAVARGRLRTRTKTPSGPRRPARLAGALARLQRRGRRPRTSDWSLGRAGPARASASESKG

Compound | pA2 Atria [2] | Kb [2] [nM] | other results
CC(C)(C)NCC(O)COCc1ccc(O)c(O)c1 (stereo not drawn) [Compound 4a] | 6.5 |  | In Vivo Potency ([1]; anesthetized dogs, infusion rate adjusted to about 50% isoproterenol inhibition at end of 3-hour infusion): 112 mcg/k/m; In Vivo % I ([1]; isoproterenol inhibition (isoproterenol 0.5 μg/kg bolus), dogs, 3-hour infusion at the listed potency rate): 45%; DOA (Time for rec. in min.) 50% ([1]; time to 50% recovery from β-blockade after termination of 3-hour infusion, dogs): 5 min; DOA (Time for rec. in min.) 80% ([1]; time to 80% recovery from β-blockade after termination of 3-hour infusion, dogs, estimated): 16 min
CC(C)(C)NCC(O)COCc1cc(O)c(O)cc1F (stereo not drawn) [Compound 4b] | 7.0 |  | 
Cc1cc(O)c(O)cc1COCC(O)CNC(C)(C)C (stereo not drawn) [Compound 4c] | 6.0 |  | 
CC(C)(C)NCC(O)COCc1cc(O)cc(O)c1 (stereo not drawn) [Compound 5a] |  | 316 | 
CC(C)(C)NCC(O)COCc1cc(O)c(O)c(O)c1 (stereo not drawn) [Compound 5b] |  | 1000 | 
CC(C)C(=O)NCC(C)(C)NCC(O)COCc1cc(O)cc(O)c1 (stereo not drawn) [Compound 5c] |  | 79.4 | 
CC(C)(CNC(=O)c1ccccc1)NCC(O)COCc1cc(O)cc(O)c1 (stereo not drawn) [Compound 5d] |  | 79.4 | 
CC(C)(CNC(=O)C1CCCCC1)NCC(O)COCc1cc(O)cc(O)c1 (stereo not drawn) [Compound 5e] |  | 200 | 
